Experimental data: patent US7495028B2, “R-bambuterol, its preparation and therapeutic uses” (priority 2002, dated 2009)
Structures can show the parent of a compound that is named as a salt. Marks after values point to notes of the source that are not given here.

Experiments:
[1] = system: isolated guinea pig lung strip; experiment: Bronchodilating effect on isolated guinea pig lung strip pre-contracted by histamine; assay type: cell-based
Protocol: Test method: Guinea pigs (Dunlin-Hartley, ca. 400 g) were used. After anesthesia, the chest was opened and sections of lung tissue about 3 mm in width, were dissected quickly from a lower lobe with the longitudinal axis of the strip cut parallel to the bronchus. The strips were further divided into two thin strips with approximate dimension of 20×3×3 mm. With threads attached to each end, strips were mounted in organ baths containing aerated Krebs solution at 37° C. A load of between 0.5-1.0 g force was applied by gentle stretching, and the tissue was allowed to equilibrate for 60 min with the solution changed at 20 min intervals. The lung strips were pre-contracted by 10^−5 M histamine, then an equal volume of solution containing R-bambuterol or racemic bambuterol was added cumulatively into the organ bath. The contractions of the lung strips were measured isometrically with force-displacement transducers and recorded.
Based on the pharmacokinetic studies of racemic bambuterol hydrochloride, about 50% of absorbed bambuterol is hydrolyzed to terbutaline, the active-parent form, in plasma. There is little cholinesterase in the lung strip preparation, so neither the test compound nor racemic bambuterol has significant effects. In order to test the compound of invention in vitro on isolated guinea-pig lung tissue, R-bambuterol and racemic bambuterol were administrated orally to guinea pigs at a dose of 8 mg/kg. Four hours later, blood was collected from the animals, and the serum containing the active parent form of the test compounds were prepared. The concentration of the active parent form, i.e. terbutaline, in serum measured using BPLC, was 64-70 ng/ml in the animal treated with R-bambuterol and 62-69 ng/ml in the animal treated with racemic bambuterol. The serum containing the active form of test compound was then added into the organ in a certain volume, so that the final concentration of the active forms of test compounds was 0.25 ng/ml in the organ bath. Concentration-response relationships were obtained using a cumulative dose schedule by adding the same volume of the serum into the organ bath. The test using the serum containing the active form of racemic bambuterol was done in parallel with the test compound in the same manner as described above.

[2] = system: hyperlipidemia mice; experiment: Lipid lowering effects in Tyloxapol-induced hyperlipidemia mice; assay type: in vivo; conditions: for TG lipid level: plasma 24 hours after Tyloxapol
Protocol: Test method: Male and […] mice, Kunming strain, 35 each, weight 18-22 grams, were used. Food and water were available ad libitum. The animals were randomized into 7 groups (n=10). Groups of animals were administered orafly, via a stomach tube, vehicle (distilled water, two groups), R-bambuterol hydrochloride (10 mg/kg and 5 mg/kg), racemic bambuterol hydrochloride (10 mg/kg and 5 mg/kg) and simvastatin (10 mg/kg) once a day for four days. With the exception of one vehicle—treated group (as control), Tyloxapol (400 mg/kg, Sigma Chemical Co.) was injected into the peritoneal cavity of the mice of all groups immediately after the last treatment on the fourth day in order to induce hyperlipidemia. All the animals were fasted overnight prior to the injection of Tyloxapol. Blood samples were collected by cardiac puncture 24 hours after the injection of Tyloxapol. The blood samples were processed to plasma, and concentration of triglycerides (TG), cholesterol (CHO), high density lipoprotein (HDL), low density lipoprotein (LDL) and very low density lipoprotein (VLDL) were measured with an autoblood analyzer (Olympic, Japan).

[3] = system: rats; experiment: Cardiovascular effects in anesthetized rats; assay type: in vivo; conditions: both, Sprague Dawley, rat, in vivo, 20 min
Text: Test method: Rats (Sprague Dawley, 250-300 g) were randomized into two groups (n=6, equal sexes). After anesthesia, plastic tubing was introduced into a carotid artery of each animal and connected to pressure transducers to record mean artery pressure (MBP) and heart rate (HR). Another tube was introduced into the left ventricular chamber via the another carotid artery and connected to a pressure transducer. Left ventricular systolic pressure (LVSP) and the first order of differential of LVSP (dp/dt) as an index for inotropic effects were recorded. R-Bambuterol and racemic bambuterol hydrochloride were dissolved in saline and administrated intravenously at 30 mg/kg to each animal. The HR, MBP and Max dp/dt were measured before treatment (control) and after the treatments when the maximum response occurred, and 20 min after treatment as indication of recovery.

[4] = system: conscious guinea pigs exposed to aerosol histamine; experiment: Protection against histamine-evoked asthma in conscious guinea pigs; assay type: in vivo, guinea pig; conditions: for Collapsed n: 8 animals; for Potency relative to racemic bambuterol: bronchospasmolytic / protective effect, hydrochloride; for % collapse / Latency time of collapse: dose-response, four hours before exposure
Protocol: Test methods: Guinea pigs (Dunki-Hartley strain, 190±30 g) were fasted overnight but given water ad libidum. The animals were restrained individually in a glass chamber and exposed to aerosol histamine generated by a nebulizer from a 0.2% aqueous solution of histamine under constant pressure at dose of 0.5 ml/min for a period of 15 sec. The animal was removed from the chamber, and its behavior was monitored. A sign of collapse and the latency time from exposure to collapse were recorded. Only the animals with latency time less than 120 sec, as an indication of sensitive to histamine, were chosen for later experiments. The animals chosen were allowed to recover completly by resting for 24 hours before experiments. Test compounds and racemic bambuterol hydrochloride were dissolved in saline.
Time course of the effect of test compounds: R-Bambuterol hydrochloride or racemic bambuterol hydrochloride at 2, 4 and 8 mg/kg, and vehicle alone, were administered to the guinea pigs orally via a stomach tube. Exposure of treated animals to aerosol histamine (as above) was done at 1, 4 and 24 hours after treatment. For each experimental group, there were a total of 8 animals with equal number of both sexes, and no repeated exposure was made for individual experimental animals.
Study of dose-response of test compounds: Four hours before the exposure to aerosol histamine, animals were randomized into groups (n=8, equal male and female), and given R-bambuterol hydrochloride or racemic bambuterol in doses of 0.25, 0.5, 1.0, 2.0, 4.0 and 8.0 mg/kg, and vehicle control, orally via a stomach tube. The numbers of collapsed animal as a result of asthmatic reaction to aerosol histamine were counted, and the latency times were recorded. Both of these parameters were used as quantitative measurements of the protective effects of the treatments on bronchospasm evoked by aerosol histamine.

[5] = system: sensitized conscious guinea pigs exposed to aerosol ovalbumin; experiment: Protection against allergic bronchospasm in ovalbumin-sensitized conscious guinea pigs; assay type: in vivo, guinea pig
Protocol: Test method: Guinea pigs (Dunkin-Hartley strain, 200±10 g, equal sexes) were used in this study. Ovalbumin (5%) solution was injected into guinea pigs subcutaneously and intraperitoneally to sensitize the animals. Male and female sensitized animals were kept separately for 14 days, and food and water was available ad libitum. On day 14 after sensitization, animals were randomized into groups of 8 each. The animals were treated orally with saline (control) or various concentrations of R-bambuterol or racemic bambuterol in saline. Four hours after the treatment, each animal was restrained in a glass chamber. After stabilization the animal was exposed to an aerosol of ovalbumin generated by a nebulizer from a 5% solution of ovalbumine at a rate of 0.5 ml/min for a period of 15 seconds. The animal was removed from the chamber, and the behavior of the animal was monitored. The number of the sensitized animals which collapsed were counted, and the latency time, i.e. the time from the exposure to aerosol ovalbumin to the collapse of the animal, was recorded.

[6] = system: β-2 receptor; conditions: Hartley and Middlemis 1971; cited from earlier work
[7] = 0.25 ng/ml active form in organ bath, 10^−5 M histamine pre-contraction
[8] = Tyl + 10 mg (10 mg/kg oral once a day for four days)

CC(C)(C)NCC(O)c1cc(O)cc(O)c1 (racemic) [Active form of RS-bambuterol, racemic terbutaline]
Percent of Relaxation [1, 7]: 7.6 ± 0.8% | Percent of Relaxation ([1]; 0.50 ng/ml active form): 10.8 ± 2.1% | Percent of Relaxation ([1]; 0.75 ng/ml active form): 26.5 ± 3.4% | Percent of Relaxation ([1]; 1.00 ng/ml active form): 39.6 ± 4.0% | Percent of Relaxation ([1]; 1.25 ng/ml active form): 45.7 ± 6.7%

CC(C)(C)NC[C@H](O)c1cc(O)cc(O)c1 [Active form of R-bambuterol, R-terbutaline]
Percent of Relaxation [1, 7]: 12.4 ± 1.3% | Percent of Relaxation ([1]; 0.50 ng/ml active form): 19.5 ± 2.2% | Percent of Relaxation ([1]; 0.75 ng/ml active form): 43.7 ± 1.8% | Percent of Relaxation ([1]; 1.00 ng/ml active form): 60.1 ± 5.7% | Percent of Relaxation ([1]; 1.25 ng/ml active form): 75.6 ± 8.4%

CN(C)C(=O)Oc1cc(OC(=O)N(C)C)cc([C@@H](O)CNC(C)(C)C)c1 [R-bambuterol, R-Bambuterol hydrochloride]
CHO lipid level ([2]; Tyl + 5 mg): 189 ± 83 mg/dL | HDL lipid level ([2]; Tyl + 5 mg): 42 ± 27 mg/dL | LDL lipid level ([2]; Tyl + 5 mg): 34 ± 15 mg/dL | VLDL lipid level ([2]; Tyl + 5 mg): 50 ± 26 mg/dL | TG lipid level ([2]; Tyl + 5 mg (5 mg/kg oral once a day for four days)): 323 ± 176 mg/dL | CHO lipid level ([2]; Tyl + 10 mg): 119 ± 16 mg/dL | HDL lipid level ([2]; Tyl + 10 mg): 53.3 ± 6.7 mg/dL | LDL lipid level ([2]; Tyl + 10 mg): 29 ± 5 mg/dL | VLDL lipid level ([2]; Tyl + 10 mg): 35 ± 7 mg/dL | TG lipid level [2, 8]: 105 ± 18 mg/dL | HR 20 min after Δ, % of Control [3]: 3.7% | Maxdp/dt 20 min after Δ, % of control [3]: 5.0% | Collapsed % ([4]; 2 mg/kg oral, 1st Hour): 50.0* % | Latency ([4]; 2 mg/kg oral, 1st Hour): 231 ± 70 s | Collapsed n ([4]; 2 mg/kg oral, 1st Hour): 4.0 | Collapsed % ([4]; 2 mg/kg oral, 4th Hour): 25.0* % | Latency ([4]; 2 mg/kg oral, 4th Hour): 295 ± 65 s | Collapsed n ([4]; 2 mg/kg oral, 4th Hour): 2.0 | Collapsed % ([4]; 2 mg/kg oral, 24th Hour): 62.5% | Latency ([4]; 2 mg/kg oral, 24th Hour): 202 ± 67 s | Collapsed n ([4]; 2 mg/kg oral, 24th Hour): 5.0 | Collapsed % ([4]; 4 mg/kg oral, 1st Hour): 37.5* % | Latency ([4]; 4 mg/kg oral, 1st Hour): 258 ± 71 s | Collapsed n ([4]; 4 mg/kg oral, 1st Hour): 3.0 | Collapsed % ([4]; 4 mg/kg oral, 4th Hour): 0.0* % | Latency ([4]; 4 mg/kg oral, 4th Hour): >360 s | Collapsed n ([4]; 4 mg/kg oral, 4th Hour): 0.0 | Collapsed % ([4]; 4 mg/kg oral, 24th Hour): 50.0% | Latency ([4]; 4 mg/kg oral, 24th Hour): 242 ± 64 s | Collapsed n ([4]; 4 mg/kg oral, 24th Hour): 4.0 | Collapsed % ([4]; 8 mg/kg oral, 1st Hour): 25.0% | Latency ([4]; 8 mg/kg oral, 1st Hour): 299 ± 57 s | Collapsed n ([4]; 8 mg/kg oral, 1st Hour): 2.0 | Collapsed % ([4]; 8 mg/kg oral, 4th Hour): 0.0% | Latency ([4]; 8 mg/kg oral, 4th Hour): >360 s | Collapsed n ([4]; 8 mg/kg oral, 4th Hour): 0.0 | Collapsed % ([4]; 8 mg/kg oral, 24th Hour): 37.5% | Latency ([4]; 8 mg/kg oral, 24th Hour): 256 ± 72 s | Collapsed n ([4]; 8 mg/kg oral, 24th Hour): 3.0 | ED50 ([4]; Cavia porcellus, 4 h, oral, four hours before aerosol histamine, read-out: ED50 (protection against collapse)): 0.91 mg/kg | Potency relative to racemic bambuterol ([4]; oral): about twice | Potency relative to racemic bambuterol ([4]; oral, listed as R enantiomer of bambuterol): about twice | Potency relative to racemic bambuterol ([4]; oral, listed as R-Bambuterol): about twice | % collapse ([4]; 0.25 mg/kg oral): 87.5% | Latency time of collapse ([4]; 0.25 mg/kg oral): 110 s | % collapse ([4]; 0.5 mg/kg oral): 75% | Latency time of collapse ([4]; 0.5 mg/kg oral): 160 s | % collapse ([4]; 1 mg/kg oral): 50% | Latency time of collapse ([4]; 1 mg/kg oral): 209 s | % collapse ([4]; 2 mg/kg oral): 25% | Latency time of collapse ([4]; 2 mg/kg oral): 295 s | % collapse ([4]; 4 mg/kg oral): 0% | Latency time of collapse ([4]; 4 mg/kg oral): >360 s | % collapse ([4]; 8 mg/kg oral): 0% | Latency time of collapse ([4]; 8 mg/kg oral): >360 s | Onset of protective effects after administration ([4]; oral 2 to 8 mg/kg): one | Time of maximum protective effects after administration ([4]; oral 2 to 8 mg/kg): 4 h | Dose at which full protective effect was seen ([4]; oral, collapse after aerosol histamine): 4 mg/kg | Dose at which maximum effects on latency were seen ([4]; oral, latency time to collapse): 4 mg/kg | % collapsed ([5]; 1 mg/kg oral): 63% | Latency time ([5]; 1 mg/kg oral): 193 ± 30 s | Number collapsed ([5]; 1 mg/kg oral (n = 8), four hours before aerosol ovalbumin): 5 | % collapsed ([5]; 4 mg/kg oral): 25% | Latency time ([5]; 4 mg/kg oral): 293 ± 27 s | Number collapsed ([5]; 4 mg/kg oral (n = 8)): 2 | % collapsed ([5]; 8 mg/kg oral): 0% | Latency time ([5]; 8 mg/kg oral): >360*# sec

CC(C)(C)NC[C@H](O)c1ccc(O)c(CO)c1 [R-enantiomer of albuterol, albuterol]
Potency as β-2 receptor agonist relative to the S-enantiomer [6]: approximately 80 times

CCC(C)(C)C(=O)O[C@H]1C[C@@H](C)C=C2C=C[C@H](C)[C@H](CC[C@@H]3C[C@@H](O)CC(=O)O3)[C@H]21 [simvastatin]
CHO lipid level ([2]; Tyl + 10 mg): 176 ± 64 mg/dL | HDL lipid level ([2]; Tyl + 10 mg): 49 ± 16 mg/dL | LDL lipid level ([2]; Tyl + 10 mg): 42 ± 11 mg/dL | VLDL lipid level ([2]; Tyl + 10 mg): 85 ± 50 mg/dL | TG lipid level [2, 8]: 311 ± 187 mg/dL
